Results taken from patent US20010038822A1, “Melanotropin analogs for potential radiopharmaceuticals for diagnosis and treatment of melanoma” (priority 1998, published 2001).
Like-named read-outs stand apart in the source and are kept apart here. Positions of bridges follow the written chain, without caps; N, C: chain ends. Non-standard residues stand in square brackets, D forms with d. Residues, ends and D or L forms follow the SMILES beside them.

Tests used:
[1] = system: B16F1 murine melanoma cells; type: cell-based
Experimental: Peptide bioactivity was determined by measuring melanin released into cell culture media in an in vitro assay using B16F1 murine melanoma cells (Siegrist, W., 1986). Cells were incubated with various concentrations of peptide and assayed for melanin production by measuring the absorbance of the culture media at 405 nm. Absorbance values were compared to a standard curve obtained using synthetic melanin from Sigma. The standard curve was linear over the experimental range of absorbance values.

[2] = target: T1, α-MSH receptor on B16-F1 murine melanoma cells (Mus musculus, UniProt Q01727); assay: Competitive receptor binding assay with ^125I-[Nle^4, D-Phe^7]-α-MSH
T1 construct: endogenous in cells; host or cells: B16-F1 murine melanoma cells
Experimental: Quantitative receptor binding assays were carried out following a previously described method (Siegrist W., 1988; Sahm, U. G., 1994). Cells were seeded at a density of 5×10^5 cells per well in 24 well tissue culture plates and exposed to varying concentrations of peptides on 0.5 mL of binding media (25 mM HEPES/NaOH pH=7.4, 0.2% BSA, 0.3 mM 1,10-phenanthroline, and approximately 100,000 CPM of ^125I-[Nle^4, D-Phe^7]-α-MSH) (36) at 4° C. for 8 hours. The cells were rinsed with PBS, lysed with 1 M NaOH and counted in a 1275 minigamma gamma counter from LKB Wallac.

[3] = Stabilities of tracer level complexes under challenge (10 mM cysteine / 0.05M phosphate); type: physicochemical
Experimental: ^99mTcO4^− was obtained from a ^99Mo/^99mTc generator produced by Mallinckrodt, Inc. ^188Re was obtained from a ^188W/^188Re generator produced by the University of Missouri research reactor. Radiolabeled peptides were prepared by substitution onto either ^99mTc- or ^188Re-glucoheptonate. For ^188Re complexes, 500 μL of generator eluant was added to a tube containing 50 mg Na-glucoheptonate and 10 mg SnCl2.2H2O dissolved in 200 μL N2-purged 5% disodium-EDTA and heated at 70-80° C. for 0.5 hour. 50 μL of a 1 mg/mL peptide solution was then added, the pH was adjusted to 7-8 with 0.5 N NaOH, and the mixture was allowed to incubate for 90 minutes. at 70-80° C. Syntheses of ^99mTc-labeled peptides differed only in that they were carried out at 25° C. using a 10-fold lower concentration of SnCl2.2H2O.

T1 sequence (Q01727 whole entry): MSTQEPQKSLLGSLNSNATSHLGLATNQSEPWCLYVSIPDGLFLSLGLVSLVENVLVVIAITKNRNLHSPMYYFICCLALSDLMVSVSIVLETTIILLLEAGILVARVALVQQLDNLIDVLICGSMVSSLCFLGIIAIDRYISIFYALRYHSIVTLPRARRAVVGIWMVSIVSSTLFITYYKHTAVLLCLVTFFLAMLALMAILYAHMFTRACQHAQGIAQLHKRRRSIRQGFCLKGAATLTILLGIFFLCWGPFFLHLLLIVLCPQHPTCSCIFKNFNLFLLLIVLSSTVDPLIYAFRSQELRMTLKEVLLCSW

With “rhenium complex of NAc-Cys-Cys-Glu-His-D-Phe-Arg-Trp-Cys-Lys-Pro-Val-NH2, APOMSH analog with additional N-terminal Cys [ReCCMSH]” the EC50 ([1]; B16-F1 murine melanoma cells, read-out: EC50 melanin synthesis) was 0.035 nM, the “ability to stimulate melanin production” value ([1]; compared with APOMSH) was “almost identical to APOMSH” and the “receptor binding affinity higher than that of ReMSH” value [2] was “approximately 25 fold”. The Ki ([2]; read-out: receptor binding affinity) was 2.9 nM.

For CC(=O)N[C@@H](CS)C(=O)N[C@@H](CCC(=O)O)C(=O)N[C@@H](Cc1c[nH]cn1)C(=O)N[C@H](Cc1ccccc1)C(=O)N[C@@H](CCCNC(=N)N)C(=O)N[C@@H](Cc1c[nH]c2ccccc12)C(=O)N[C@@H](CS)C(=O)N[C@@H](CCCCN)C(=O)N1CCC[C@H]1C(=O)N[C@H](C(N)=O)C(C)C (188Re complex, metal not drawn) [^188ReMSH] (Ac-CEH[dF]RWCKPV-NH2), the “Stability of tracer level complex” value ([3]; 10 mM Cysteine challenge, 4 hrs) was 48.9%, the “Stability of tracer level complex” value ([3]; 10 mM Cysteine challenge, 24 hrs) was 34.0% and the “Stability of tracer level complex” value ([3]; 0.05M Phosphate challenge, 4 hrs) was 90.3%. For the same compound, the “Stability of tracer level complex” value ([3]; 0.05M Phosphate challenge, 24 hrs) was 66.4% and the half-life ([3]; 0.05M phosphate with 10 mM cysteine, in competition with 10 mM free cysteine, read-out: t½ (converted)) was ~4 h.

CC(=O)N[C@H]1CSSC[C@@H](C(=O)N[C@@H](CCCCN)C(=O)N2CCC[C@H]2C(=O)N[C@H](C(N)=O)C(C)C)NC(=O)[C@H](Cc2c[nH]c3ccccc23)NC(=O)[C@H](CCCNC(=N)N)NC(=O)[C@@H](Cc2ccccc2)NC(=O)[C@H](Cc2c[nH]cn2)NC(=O)[C@H](CCC(=O)O)NC1=O [APOMSH, NA-Cys-Glu-His-D-Phe-Arg-Trp-Cys-Lys-Pro-Val-NH2, reference compound] (Ac-CEH[dF]RWCKPV-NH2; disulfide 1-7) showed an EC50 [1] of 0.026 nM and a Ki ([2]; B16-F1 murine melanoma cells, read-out: Ki) of 0.68 nM.
